ChEMBL document CHEMBL4421726, “Novel prodrug salts” (2016)
Activity calls are given as the source filed them. The rule behind the calls is not given here.

Tests used:
[1] = system: Mus musculus; assay: Improvement in neurological outcome in intraluminal monofilament mouse model of middle cerebral artery occlusion at 2 mg/kg, ip loading dose and 1 mg/ml at 8 ul/hr maintenance dose; format: functional, organism-based
[2] = system: Mus musculus; assay: Improvement in neurological outcome in intraluminal monofilament mouse model of middle cerebral artery occlusion assessed as reduction in severe paralysis progress at 2 mg/kg, ip loading dose and 1 mg/ml at 8 ul/hr maintenance dose; format: functional, organism-based
[3] = system: Mus musculus; assay: Improvement in neurological outcome in intraluminal monofilament mouse model of middle cerebral artery occlusion assessed as reduction in death incidence at 2 mg/kg, ip loading dose and 1 mg/ml at 8 ul/hr maintenance dose; format: functional, organism-based
[4] = Solubility in water; format: physicochemical
[5] = Stability of the compound in solid state assessed as compound hydrolysis; format: physicochemical
[6] = Stability of the compound in pH 9.5 buffer assessed as compound hydrolysis measured over 12 hrs; format: physicochemical; details: read-out: Drug degradation
[7] = Stability of the compound in pH 9.5 buffer assessed as compound hydrolysis at room temperature; format: physicochemical; details: read-out: Drug degradation
[8] = system: Mus musculus; assay: Inhibition of water toxicity in mouse water toxicity model assessed as time to 50% survival for animals at 0.76 mg/kg relative to control; format: functional
[9] = system: Mus musculus; assay: Inhibition of water shock-induced cerebral edema in mouse water toxicity model assessed as reduction in extent of cerebral edema at 0.76 mg/kg by MRI analysis relative to control; format: functional, organism-based
[10] = Plasma concentration in mouse water toxicity model a at 0.76 mg/kg; format: organism-based; details: in vivo
[11] = target: Aquaporin-4 (Homo sapiens) (UniProt P55087); assay: Inhibition of AQP4 (unknown origin) expressed in CHO cells assessed as reduction in water shock-induced aquaporin-mediated cell bursting at 10 uM incubated for 30 mins by calcein-AM fluorescence end-point assay; format: cell-based
[12] = Stability of the compound in pH 7.5 buffer assessed as compound hydrolysis measured over 12 hrs; format: physicochemical; details: read-out: Drug degradation
[13] = Stability of the compound in pH 7.5 buffer assessed as compound hydrolysis at room temperature; format: physicochemical; details: read-out: Drug degradation
[14] = Drug metabolism in mouse plasma assessed as formation of N-3,5-bis(trifluoromethyl)phenyl-5-chloro-2-hydroxybenzamide measured within 5 mins; format: ADME, cell-free
[15] = Drug metabolism in mouse plasma assessed as formation of 2-3,5-bis(trifluoromethyl)phenylcarbamoyl-4-chlorophenyl phosphate bis-ethanolamine salt at 10 mg/kg, ip loading dose and 1 mg/ml at 8 ul/hr maintenance dose measured at 15 mins and 24 hrs post dose by LC-MS/MS analysis; format: ADME, organism-based; details: in vivo
[16] = Drug metabolism in mouse plasma assessed as formation of N-3,5-bis(trifluoromethyl)phenyl-5-chloro-2-hydroxybenzamide at 10 mg/kg, ip loading dose and 1 mg/ml at 8 ul/hr maintenance dose measured at 15 mins and 24 hrs post dose by LC-MS/MS analysis; format: ADME, organism-based; details: in vivo
[17] = Drug metabolism in mouse plasma assessed as N-3,5-bis(trifluoromethyl)phenyl-5-chloro-2-hydroxybenzamide level at 10 mg/kg, ip loading dose and 1 mg/ml at 8 ul/hr maintenance dose measured at 15 mins and 24 hrs post dose by LC-MS/MS analysis; format: ADME, organism-based; details: in vivo
[18] = system: Mus musculus; assay: Drug absorption mouse plasma assessed as rate of drug absorption at 10 mg/kg, ip loading dose and 1 mg/ml at 8 ul/hr maintenance dose measured at 15 mins and 24 hrs post dose by LC-MS/MS analysis; format: ADME, organism-based; details: in vivo
[19] = Drug elimination mouse plasma assessed as rate of drug elimination at 10 mg/kg, ip loading dose and 1 mg/ml at 8 ul/hr maintenance dose measured at 15 mins and 24 hrs post dose by LC-MS/MS analysis; format: ADME, organism-based
[20] = Stability of the compound in pH 8.5 buffer assessed as compound hydrolysis measured over 12 hrs; format: physicochemical; details: read-out: Drug degradation
[21] = Stability of the compound in pH 8.5 buffer assessed as compound hydrolysis at room temperature; format: physicochemical; details: read-out: Drug degradation
[22] = target: T1, Aquaporin-2 (Homo sapiens) (UniProt P41181); assay: Inhibition of AQP2 (unknown origin) expressed in CHO cells assessed as reduction in aquaporin-mediated cell Volume change at 10 uM by light scattering based assay
T1 sequence (whole entry): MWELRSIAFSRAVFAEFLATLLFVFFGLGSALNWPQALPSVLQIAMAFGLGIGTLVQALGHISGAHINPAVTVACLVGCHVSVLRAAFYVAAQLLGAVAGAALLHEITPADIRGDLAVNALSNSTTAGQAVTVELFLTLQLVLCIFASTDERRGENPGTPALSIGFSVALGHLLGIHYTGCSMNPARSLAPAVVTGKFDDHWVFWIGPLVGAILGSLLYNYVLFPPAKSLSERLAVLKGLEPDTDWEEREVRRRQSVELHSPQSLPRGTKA

[23] = target: T2, Aquaporin-1 (Homo sapiens) (UniProt P29972); assay: Inhibition of AQP1 (unknown origin) expressed in CHO cells assessed as reduction in aquaporin-mediated cell Volume shrinkage at 10 uM by light scattering based assay
T2 sequence (whole entry): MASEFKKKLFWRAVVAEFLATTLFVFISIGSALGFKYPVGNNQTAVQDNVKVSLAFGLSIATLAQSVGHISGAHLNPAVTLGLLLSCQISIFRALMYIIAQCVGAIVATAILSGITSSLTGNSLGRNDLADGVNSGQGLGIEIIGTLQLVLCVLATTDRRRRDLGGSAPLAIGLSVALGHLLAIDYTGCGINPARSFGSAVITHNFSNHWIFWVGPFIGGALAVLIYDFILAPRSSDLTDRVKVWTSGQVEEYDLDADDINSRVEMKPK

[24] = target: Aquaporin-5 (Homo sapiens) (UniProt P55064); assay: Inhibition of AQP5 (unknown origin) expressed in CHO cells assessed as reduction in aquaporin-mediated cell Volume shrinkage at 10 uM by light scattering based assay
[25] = Stability of the compound assessed as compound hydrolysis at room temperature after 5 days; format: physicochemical; details: read-out: Drug degradation

Chain of Aquaporin-5 (Homo sapiens) (P55064 whole entry): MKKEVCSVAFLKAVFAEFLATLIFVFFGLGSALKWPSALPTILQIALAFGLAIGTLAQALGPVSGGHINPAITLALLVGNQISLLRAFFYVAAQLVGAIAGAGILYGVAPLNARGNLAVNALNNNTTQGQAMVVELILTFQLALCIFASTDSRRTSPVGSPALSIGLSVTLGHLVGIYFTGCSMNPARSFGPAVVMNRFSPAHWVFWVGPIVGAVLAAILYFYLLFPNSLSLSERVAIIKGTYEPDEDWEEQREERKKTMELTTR
Chain of Aquaporin-4 (Homo sapiens) (P55087 whole entry): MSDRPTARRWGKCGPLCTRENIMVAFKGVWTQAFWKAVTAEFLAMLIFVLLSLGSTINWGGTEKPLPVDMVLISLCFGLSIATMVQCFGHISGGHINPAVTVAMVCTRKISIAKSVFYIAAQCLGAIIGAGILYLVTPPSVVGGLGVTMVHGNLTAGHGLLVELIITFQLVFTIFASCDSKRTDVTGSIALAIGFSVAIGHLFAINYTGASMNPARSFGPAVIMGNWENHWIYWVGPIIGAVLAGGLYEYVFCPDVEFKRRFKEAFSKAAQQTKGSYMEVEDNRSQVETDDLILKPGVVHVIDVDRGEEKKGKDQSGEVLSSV

O=C(Nc1cc(C(F)(F)F)cc(C(F)(F)F)c1)c1cc(Cl)ccc1OP(=O)(O)O [listing 1 of 2 here]
Activity [1]: Active
Activity [2]: Active
Activity [3]: Active

O=C(Nc1cc(C(F)(F)F)cc(C(F)(F)F)c1)c1cc(Cl)ccc1OP(=O)([O-])[O-].[Na+].[Na+]
solubility [4]: 1000 to 10000 µg/mL
degraded ([5]; solid state, read-out: Drug degradation): 1%
degraded at 12 h [6]: < 1%
degraded [7]: 1%

O=C(Nc1cc(C(F)(F)F)cc(C(F)(F)F)c1)c1cc(Cl)ccc1O [IMD-0354]
Time [8]: 52 min
inhibition [9]: Active
Cp [10]: 0.03 to 0.06 g
inhibition [11]: Active

NCCO.NCCO.O=C(Nc1cc(C(F)(F)F)cc(C(F)(F)F)c1)c1cc(Cl)ccc1OP(=O)(O)O
solubility [4]: 10000 µg/mL
Drug degradation [5]: 1%
degraded at 12 h [12]: < 1%
degraded [13]: 1%
Drug metabolism [14]: Metabolite_Detected
Drug metabolism [15]: Metabolite_Notdetected
Drug metabolism [16]: Metabolite_Detected
Drug metabolism [17]: 400 ng/mL
Ka [18]: 0.12 min⁻¹
k el [19]: 0.000283 s⁻¹

O=C(Nc1cc(C(F)(F)F)cc(C(F)(F)F)c1)c1cc(Cl)ccc1OP(=O)([O-])O.[Na+]
Drug degradation [5]: 1%
degraded at 12 h [20]: < 1%
degraded [21]: 1%

O=C(Nc1cc(Cl)cc(Cl)c1)c1cc(Cl)ccc1O
inhibition [22]: 81%
inhibition [23]: inactive
inhibition [24]: inactive

O=C(Nc1cc(C(F)(F)F)cc(C(F)(F)F)c1)c1cc(Cl)ccc1OP(=O)(O)O [listing 2 of 2 here]
degraded at 120 h [25]: < 1%
